Experiments:
RAW264.7 cell line = test: Inhibitory effect of nitric oxide (NO) production, GRIESS method, LPS-stimulated; format: cell-based, mouse; conditions: positive control 20 ppm, LPS 1 ppm, 24 hours, relative to LPS-only group; n=4
Method: In order to confirm the anti-inflammatory effect and skin trouble improvement effect of each extract prepared in Preparation Examples 1 to 9, NO production inhibitory effect was measured by the GRIESS method using RAW264.7 cell line (ATCC number: CRL-2278).
Specifically, RAW264.7 cells, which are macrophages of mice, were subcultured several times, and cultured for 24 hours after being placed in a 24-well plate such that 3×10^5 cells were placed in one well. After exchanging with a cell medium containing the sample at a final concentration of 0.1%, an untreated medium was used as a negative group and for a positive control group, 20 ppm of L-NG-monomethylarginine (L-NMMA) was used, which is a NO-production inhibitor. 1 ppm of lipopolysaccharide was treated as a stimulus source and cultured for 24 hours. The supernatant was transferred to a 96-well plate by 100 μL, and the GRIESS solution was added by 100 μL to react at room temperature for 10 minutes, and the NO inhibitory effect was determined by measuring the absorbance at 540 nm.
The NO production inhibitory rate (%) was calculated as a relative ratio of the amount of reduced NO compared to the LPS-only treatment group, and the results are shown in Table 3 below.

Aquaporin 3 = test: Moisturizing gene expression by qRT-PCR in HaCaT: AQP3; format: cell-based, human; conditions: mRNA, positive control 10 ng/ml, negative control = 1.00, n=4
Method: In order to confirm the skin moisturizing effect of each extract prepared in Preparation Examples 1 to 9, gene expression related to moisturizing was measured using the cells cultured as below.
Human keratinocytes (HaCaT) were in a 6-hole cell culture plate 2×10^5 each, and then cultured using Dulbecco's Modified Eagle's medium (DMEM, Gibco, Co.) including fetal bovine serum (FBS) and antibiotics for 24 hours.
After culturing the cells, it was replaced with DMEM, High Glucose, no Glutamine, no calcium (Gibco, USA), and then the samples obtained in Preparation Examples 1 to 9 were treated at a concentration of 0.1% for 24 hours. […]
2.5 μg of RNA was quantified and reverse transcription was performed using cDNA synthesis kit (PhileKorea, Korea). […] Quantitative real time PCR (qRT-). […]
The experimental results obtained by qRT-PCT were shown by calculating with the ΔΔCT method (Livak K J, Schmittgen T D: Analysis of relative gene expression data using real-time quantitative PCR and the 2(-Delta Delta C(T)) Method, Methods, 25, 402-408(2001)) based on housekeeping gene and glyceraldehyde-3-phosphate dehydrogenase (GAPDH). To compare effects, moisturizing gene expression was measured in the same manner for a negative control group without treating samples and a positive control group treated with EGF 10 ng/ml and Ca^2+3 mM, respectively. […]

[1] = system: type 1 collagen in human-derived fibroblasts; test: Synthesis promotion effect of type 1 collagen in human-derived fibroblasts (PICP EIA kit); format: cell-based; conditions: positive control 10 ng/ml, relative to negative control; n=4
Method: In order to confirm the wrinkle improvement effect through promoting the synthesis of type 1 collagen of each extract prepared in Preparation Examples 1 to 9, collagen synthesis rate was measured by adding the samples obtained in Preparation Examples 1 to 9 to the culture solution of human-derived fibroblasts. The synthesis of collagen was quantified using a PICP EIA kit (Procollagen Type I C-Peptide Enzyme ImmunoAssay KIT). After adding the sample to a culture medium of fibroblasts (DMEM medium) at a final concentration of 0.1% and culturing for 48 hours, cultures were taken and the degree of collagen synthesis of type 1 collagen at each concentration was measured at 450 nm using a spectrophotometer with PICP EIA kit.
For comparison of the effects, the degree of collagen synthesis was measured in the same manner with respect to a culture medium (negative control group) of untreated fibroblasts and the sample (positive control) added with TGF-β to a final concentration of 10 ng/mL.
Collagen synthesis rate (%) was calculated as the ratio of the collagen production amount relative to the negative control, and the results are shown in Table 1 below.

B-16 mouse melanoma cell = test: Inhibitory effect of melanin production at cellular level; format: cell-based; conditions: positive control 100 ppm, 3 days, relative to negative control; n=4
Method: In order to confirm the brightening effect through the inhibition of melanin production of each extract prepared in Preparation Examples 1 to 9, the samples obtained in Preparation Examples 1 to 9 were added to a culture medium of mouse melanoma cells (B-16 mouse melanoma cell) to measure the total amount of melanin (Lotan R. et al., Cancer Res. 40:3345-3350, 1980). Prior to measuring the total amount of melanin, brightening evaluation was performed at non-toxic concentrations by first evaluating the toxicity of mouse melanoma cells. […]
Thereafter, the cells were trypsin-treated, detached from the culture vessel, and centrifuged, and melanin was extracted. The detached cells were added with 1 mL of sodium hydroxide solution (1N concentration), boiled for 10 minutes to dissolve the melanin, and the absorbance was measured at 405 nm using a spectrophotometer to measure the amount of melanin produced.
The amount of melanin was measured by the absorbance of the unit cell count (1×10^6 cells), and the melanin production inhibition rate (%) was calculated as the total amount of melanin relative to the negative control group, and the results are shown in Table 2 below.

CNC(=N)NCCC[C@H](N)C(=O)O [L-NMMA, L-NG-monomethylarginine]
NO production inhibitory rate (%) (RAW264.7 cell line): 51.85%

EGF: Positive control for moisturizing gene expression, 10 ng/ml
Aquaporin 3 (fold) (Aquaporin 3): 3.27 fold

TGF-β
Collagen synthesis rate (%) [1]: 15.21%

OC[C@H]1O[C@@H](Oc2ccc(O)cc2)[C@H](O)[C@@H](O)[C@@H]1O [Albutin]
Melanin production inhibition rate (%) (B-16 mouse melanoma cell): 33.13%

Source: patent publication US20210059927A1, “COSMETIC COMPOSITION COMPRISING DENDROBIUM CANDIDUM FLOWER EXTRACT” (LG HOUSEHOLD & HEALTH CARE LTD., priority 2017, published 2021)
